Measurements published in US10947323B2, “Capped cyclodextrin-hydrophobic moiety conjugate, cyclodextrin supramolecular polymer, and cyclodextrin-siRNA complex and method of synthesis thereof” (SORBONNE UNIVERSITE, priority 2016, dated 2021).

Tests used:
[1] = test system: firefly luciferase GL3 expression in HEK293 cells; assay: KnockDown test of the luciferase GL3 gene (siRNA transfection, One-Glo luminescence); type: cell-based, human; conditions: siRNA complexes, N/P ratio of 1190, 24 hours, untransfected cells = 100% expression
Procedure: The cell line to be transfected is a cell line of human embryonic kidney 293 cells (HEK293). This cell line is cultivated with a DMEM medium to which SVF (10%) is added.
The cultures are made in an incubator at 37° C., 5% of CO2. The cell line HEK293 express constitutively the firefly luciferase GL3.
The HEK293 cells are deposited in a 96 wells plaque 1·10^3 cell/wells.
The siRNA which is used is the luciferase GL3 siRNA.
Transfection of cell line HEK293 with the siRNA directed against the firefly luciferase GL3 with as vector of transfection the […] obtained in example 1 or Lipofectamine 2000 (used as a positive reference of transfection) has been carried out.
The efficacy of transfection on the cells has been evaluated by a method of luminescence.
One day before the transfection, the HEK293 cells are deposited in a 96 wells plaque: 1·10^3 cell/wells treated in 200 μL of DMEM, SVF 10%, without antibiotics, in order that the cells reach a 30-50% of confluence the day after.
The day of the transfection, the 200 μL/wells of medium are withdrawn. […]
This latter is incubated at 37° C. during 24 hours until the analysis by luminescence of the KD of the gene of the luciferase (Kit One-Glo luciferase assay (Promega)).
For this aim, 100 μL/wells of reactants are added to the cells before the plaque be analyzed by luminescence.

[2] = test system: siRNA; assay: Agarose gel electrophoresis of siRNA complex formation at increasing N/P ratios; type: binding; conditions: at low N/P ratios; 100 V, 40 min
Procedure: In order to characterize the formation of complexes between the siRNA and the compound 11 of the invention obtained in example 1, an electrophorese technique on agarose gel has been used.
The molecule of siRNA and of compound of example 1 have been migrated according to N/P previously chosen.
A solution of 17 μL of siRNA-compound of example 1 is prepared in sterile water and incubated during 20 minutes at ambient temperature.
Then, this solution is deposited on the gel with 3 μL of bromophenol blue before launching the migration: 100 V, 40 min.
Third, thanks to the experiment with agarose electrophoresis gel, it has been shown that capped cyclodextrine-adamantane conjugate are able to interact and to complex siRNA. Indeed, capped cyclodextrine-adamantane complex formation was evaluated at increasing N/P ratios using agarose gel electrophoresis. (FIG. 3)
N/P ratio corresponds to the amount of protonated aminated residue of the cationic species divided by the amount of phosphate residues coming from the nucleic acids.^14 This ratio enables to compare the efficiency of a cationic compound to be complexed with nucleic acids. ^14 Pharmaceutics. 2011, 3, 125-140

[3] = test system: HEK293 cells; assay: Toxicity test (cell viability, ATP activity, CellTiter Glo 2.0); type: cell-based, human; conditions: over the range of N/P ratios, 24 hours
Procedure: In order to evaluate the toxicity of compound 11 of example 1 on HEK293 cells, the kit CellTiter Glo 2.0 (Promega) has been used.
One day before the transfection, the cells HEK293 are deposited in a 96-wells plaque: 1·10^3 cell/wells and then treated with 200 μL of DMEM, SVF 10%, without antibiotics, in order that the cells reach a 30-50% of confluence the day after.
The day of the transfection, the cells are incubated with the complex siRNA-cyclodextrin conjugate obtained in example 1 and Lipofectamine 2000.siRNA at 37° C. during 24 hours until analysis of the cells viability (ATP activity) using a kit CellTiter Glo 2.0.
For this aim 100 μL/wells of CellTiter Glo 2.0. reactant are added to the cells before the plaque be analyzed by luminescence.

Structure (SMILES): OCC1O[C@@H]2O[C@@H]3C(CO)O[C@H](O[C@@H]4C5CN(CCC67CC8CC(CC(C8)C6)C7)CCCCNCC6O[C@H](O[C@@H]7C(CO)O[C@H](O[C@H]1C(O)C2O)C(O)C7O)C(O)C(O)[C@@H]6O[C@H]1OC(CO)[C@@H](O[C@H]2OC(CO)[C@@H](O[C@@H](O5)C(O)C4O)C(O)C2O)C(O)C1O)C(O)C3O (stereo partly drawn) [compose 11]
- knockdown of GL3 luciferase expression [1]: ≤ 50%
- binding (complexation) of siRNA, no migration of siRNA in gel [2]: complete binding of siRNA
- cytotoxicity of transfection with siRNA complexes [3]: no cytotoxicity
